Measured values: US20100168087A1, “BENZO[1,2,3]THIADIAZINE DERIVATES” (priority 2006, published 2010)

Key:
male Sprague-Dawley rats = assay: elevated maze test in the rat; format: in vivo; conditions: per os, 60-min pretreatment, 5-min measurement, time spent in the open arms and number of entries into the open arms
Method: Pharmacological activity of the compounds of the general Formula (I) has been evaluated in elevated maze test in the rat.
The tests were carried out according to the method of S. Pellow and coworkers (J. Neurosci. Methods. 1985, 14, 149-167). During the test, a wooden-floor cross elevated by 50 cm from the floor was used. The length and the width of the arms of the cross were 100 and 15 cm, respectively. Two opposite arms of the cross are fitted at the ends and both sides with black plexyglass wall of 40 cm height (closed arms).
The central section of the cross measuring 15 by 15 cm is open. The other two opposite arms of the cross are not provided with walls (open arms).
The tests were carried out in male Sprague-Dawley rats weighing 200 to 220 g. After the 60-min pretreatment time (per os treatment), the animal was placed in the center of the maze. During the 5-min measurement time, four variables were recorded: the time spent in the open arms; the time spent in the closed arms; the number of entries into the open arms; the number of entries into the closed arms.
Animals normally avoid the open and light parts of the maze, thereby spending little time therein only. The anxiolytic effect of the compounds of the general Formula (I) is indicated by the increase in the time spent (in seconds) in the open arms and/or by the increase in the number of the entries into the open compartments of the maze. The minimum effective dose (MED) was determined for each tested compounds regarding the time spent in the open arms and the number of entries into the open arms. During the test, the known anxiolytic compound 1-methyl-5-phenyl-7-chloro-1,3-dihydro-2H-1,4-benzodiazepin-2-one (INN: diazepam) of the Formula (IV)
was used. Treatment of the animals was carried out orally with the doses 0.1, 0.3, 1.0, 3.0 for diazepam and 0.01, 0.1, 1.0 mg/kg for the compounds of the general Formula (I).

Structure (SMILES) | melting point | MED (minimum effective dose), anxiolytic effect in elevated maze test (male Sprague-Dawley rats)
CCC1=NNS(=O)(=O)c2c1ccc(Cl)c2Cl [Example 4, 7,8-Dichloro-4-ethylbenzo[1,2,3]thiadiazine-1,1-dioxide] | 238 to 239 °C | 
COc1ccc2c(c1OC)S(=O)(=O)NN=C2C [Example 9, 7,8-Dimethoxy-4-methylbenzo[1,2,3]thiadiazine-1,1-dioxide] | 238 to 240 °C | 
COc1ccc2c(c1Cl)S(=O)(=O)NN=C2C [Example 7, 8-chloro-4-methyl-7-methoxybenzo[1,2,3]thiadiazine-1,1-dioxide] | 227 to 229 °C | 
COc1ccc2c(c1Cl)S(=O)(=O)N(C)N=C2 [Example 28, 8-chloro-2-methyl-7-methoxybenzo[1,2,3]thiadiazine-1,1-dioxide] | 173 to 175 °C | 
CC1=NNS(=O)(=O)c2c(Cl)cccc21 [Example 6, 8-chloro-4-methylbenzo[1,2,3]thiadiazine-1,1-dioxide] | 206 to 207 °C | 
O=S1(=O)NN=Cc2ccc(Cl)cc21 [Example 15, 7-chlorobenzo[1,2,3]thiadiazine-1,1-dioxide] | 221 to 223 °C | 
CC1=NNS(=O)(=O)c2c(Cl)c(Cl)cc(C)c21 [Example 5, 7,8-Dichloro-4,5-dimethylbenzo[1,2,3]thiadiazine-1,1-dioxide] |  | ≦0.01 mg/kg p.o.
COc1ccc2c(c1)S(=O)(=O)NN=C2C [Example 14, 4-Methyl-7-methoxybenzo[1,2,3]thiadiazine-1,1-dioxide] | 174 to 176 °C | 
CN1N=Cc2ccc(Cl)c(Cl)c2S1(=O)=O [Example 20, 7,8-Dichloro-2-methylbenzo[1,2,3]thiadiazine-1,1-dioxide] | 120 to 121 °C | ≦0.01 mg/kg p.o.
COc1ccc2c(c1)C=NNS2(=O)=O [Example 12, 6-Methoxybenzo[1,2,3]thiadiazine-1,1-dioxide] | 163 to 164 °C | 
CC1=NNS(=O)(=O)c2ccccc21 [Example 13, 4-Methylbenzo[1,2,3]thiadiazine-1,1-dioxide] | 183 to 185 °C | 
O=S1(=O)NN=Cc2ccc(Cl)c(Cl)c21 [Example 11, 7,8-Dichlorobenzo[1,2,3]thiadiazine-1,1-dioxide] | 183 to 185 °C | 
CC1=NN(C)S(=O)(=O)c2c(Cl)c(Cl)cc(C)c21 [Example 24, 7,8-Dichloro-2,4,5-trimethylbenzo[1,2,3]thiadiazine-1,1-dioxide] | 166 to 168 °C | 
CN1N=Cc2ccc(Cl)cc2S1(=O)=O [Example 21, 7-chloro-2-methylbenzo[1,2,3]thiadiazine-1,1-dioxide] | 131 to 133 °C | 
COc1ccc2c(c1)C=NN(C)S2(=O)=O [Example 22, 2-Methyl-6-methoxybenzo[1,2,3]thiadiazine-1,1-dioxide] | 99 to 101 °C | 
CCC1=NN(C)S(=O)(=O)c2c1ccc(Cl)c2Cl [Example 18, 7,8-Dichloro-4-ethyl-2-methylbenzo[1,2,3]thiadiazine-1,1-dioxide] | 119 to 120 °C | 
CC1=NNS(=O)(=O)c2c1cc(C)c(Cl)c2Cl [Example 10, 7,8-Dichloro-4,6-dimethylbenzo[1,2,3]thiadiazine-1,1-dioxide] | 224 to 226 °C | 
CN1N=Cc2ccccc2S1(=O)=O [Example 23, 2-Methylbenzo[1,2,3]thiadiazine-1,1-dioxide] | 79 to 80 °C | 
CCC1=NNS(=O)(=O)c2cc(Cl)ccc21 [Example 2, 4-Ethyl-7-chlorobenzo[1,2,3]thiadiazine-1,1-dioxide] | 196 to 198 °C | 
CC1=NN(C)S(=O)(=O)c2c1cc(C)c(Cl)c2Cl [Example 26, 7,8-Dichloro-2,4,6-trimethylbenzo[1,2,3]thiadiazine-1,1-dioxide] | 179 to 180 °C | 
COc1ccc2c(c1Cl)S(=O)(=O)N(C)N=C2C [Example 25, 8-chloro-7-methoxy-2,4-dimethylbenzo[1,2,3]thiadiazine-1,1-dioxide] | 151 to 152 °C | 
CCC1=NN(CC)S(=O)(=O)c2c1ccc(Cl)c2Cl [Example 19, 2,4-Diethyl-7,8-dichlorobenzo[1,2,3]thiadiazine-1,1-dioxide] | 79 to 82 °C | 
CN1C(=O)CN=C(c2ccccc2)c2cc(Cl)ccc21 [Diazepam, 1-methyl-5-phenyl-7-chloro-1,3-dihydro-2H-1,4-benzodiazepin-2-one, reference compound] |  | 1.00 mg/kg p.o.
CC1=NNS(=O)(=O)c2c1ccc(Cl)c2Cl [Example 3, 7,8-Dichloro-4-methylbenzo[1,2,3]tiadiazine-1,1-dioxide] |  | ≦0.01 mg/kg p.o.
COc1cccc2c1S(=O)(=O)NN=C2C [Example 8, 4-Methyl-8-methoxybenzo[1,2,3]thiadiazine-1,1-dioxide] | 194 to 197 °C | 
CC1=NNS(=O)(=O)c2cc(Cl)ccc21 [Example 1, 7-chloro-4-methylbenzo[1,2,3]thiadiazine-1,1-dioxide] | 187 to 189 °C | 
